According to patent US20200317741A1, “COMPOSITION FOR PREVENTING HAIR LOSS OR PROMOTING HAIR GROWTH” (BR PHARM CO., LTD., priority 2019, published 2020):
Ends that are not written are not given here.

What was measured:
Type in all cases: cell-based
dermal papilla cells [1] = assay: Dermal papilla cell growth by Wnt-derived peptides (microscopy); settings: 100 ng/mL among 10-10000 ng/mL, 72 hours (FIG. 3C)
Procedure: (§1) To confirm the shape change and proliferation rate of cells, keratinocytes T0020001 (AddexBio), fibroblasts (ATCC), and dermal papilla cells were cultured in DMEM medium containing 10% fetal bovine serum and 1% penicillin/streptomycin.
(§2) After the cells were recovered by treating the cultured cells with trypsin/EDTA and the number of cells was measured using a hematocytometer. The cells were seeded in 96 well plates at 3×10^3 cells/200 μL/well and stabilized for at least 4 hours.
(§3) Thereafter, the medium was removed, diluted with DEME medium so as to be the Wnt peptides (Wnt-1, Wnt-2) of 10, 100, 1000, and 10000 ng/mL and then treated with cells and cultured for 72 hours in an incubator at 37° C., 5% CO2. The cells were then observed by a microscope to analyze the morphology and growth rate of the cells.

keratinocytes = assay: Keratinocyte growth by Wnt-derived peptides (microscopy); settings: 72 hours (FIG. 3A)
Procedure: as §1, §2, §3

β-catenin = assay: Expression analysis of β-catenin in dermal papilla cells (western blot); settings: FIG. 6 legend
Procedure: (§4) As in Example 1, the dermal papilla cells were stabilized for at least 4 hours after seeding in 6 well plates at 4×10^4 cells/well. Thereafter, the medium was removed, and the cell was treated with PDRN, Wnt-1 peptide and Wnt-2 peptide at various concentrations alone or in combination and incubated for 72 hours in an incubator at 37° C., 5% CO2.
(§5) Then, the cells were lysed by adding lysis buffer (1 M Tris-HCl, 0.5 M EDTA, 1% Triton X-100, 100 mM PMSF) to each cell, and the protein was quantified using a BCA (Bicinconinic acid) kit. 20 μg of protein was loaded on 10% SDS-polyacrylamide and electrophoresed at 125 V. The protein separated by electrophoresis was transferred to PVDF membrane (Immobilon-P transfermembrane) by electrophoresis at 50 mA for 120 minutes using transfer buffer (20% methanol, 25 mM Tris-HCl, 192 mM glycine).
(§6) To prevent nonspecific binding, the membranes were blocked with 5% non-fat skim milk and then the reaction was carried out at 4° C. for 12 hours with a primary antibody (β-catenin, c-myc, Santa Cruz Biotechnology, Inc.) diluted to 1:1000 in TTBS solution ([…], pH 7.4; 20 mM NaCl; 0.05% Tween-20). Thereafter, the membrane was washed three times with TTBS and reacted with a secondary antibody (HRP-conjugated anti-rabbit IgG) diluted to 1:2000 at room temperature for 2 hours. The membrane was then washed three times with TTBS and then protein expression was confirmed on the X-ray film using an ECL diagnostic kit.

c-myc = assay: Expression analysis of c-myc in dermal papilla cells (western blot); settings: for activity of c-myc: FIG. 7 legend
Procedure: as §4, §5, §6

fibroblasts = assay: Fibroblast growth by Wnt-derived peptides (microscopy); settings: 10-10000 ng/mL, 72 hours, compared to the control group (FIG. 3B)
Procedure: as §1, §2, §3

dermal papilla cells [2] = assay: Dermal papilla cell growth rate by cell counting (PDRN alone or with Wnt-1+Wnt-2); settings: PDRN 50, 100, 200 μg/mL, 72 hours, relative to control without PDRN (FIG. 2)
Procedure: Dermal papilla cells (Promocells) were cultured in an incubator at 37° C., 5% CO2 using DMEM medium (Dulbeco's Modified Eagle's Medium) containing 10% fetal bovine serum (FBS) and 1% penicillin/streptomycin.
Cells were recovered by treating the cultured cells with trypsin/EDTA, and then the number of cells was measured using a hemacytometer. The cells were seeded in 96 well plates at 3×10^3 cells/200 μL/well and then stabilized for at least 4 hours. Thereafter, the medium was removed, diluted in DEME medium so as to be the polydeoxyribonucleotide (PDRN) of 50, 100, 200 μg/mL concentration and then treated with cells and cultured for 72 hours in an incubator at 37° C., 5% CO2.
Subsequently, the cells were recovered by treating them with trypsin/EDTA and then the number of cells was measured using a hematocytometer. Cell growth rate was analyzed by calculating percentages based on the control group without the treatment with PDRN.
As in Example 1, the dermal papilla cells were seeded in 96 well plates at 3×10^3 cells/200 μL/well and stabilized for at least 4 hours. Thereafter, the medium was removed, diluted with DEME medium so as to be polydeoxyribonucleotide (PDRN, BR Pharm Co. Ltd.) of 25, 50, 100 μg/mL and Wnt-1 peptide+Wnt-2 peptide of 0.1 μg/mL (each 0.05 μg/mL) and then treated with cells and cultured for 72 hours in an incubator at 37° C., 5% CO2.

Substance | cell growth rate (dermal papilla cells) at 100 ng/mL (dermal papilla cells [1]) | growth rate of the cells (keratinocytes) (keratinocytes; 10, 100, 1000, 10000 ng/mL) | activity of β-catenin (β-catenin) | activity of c-myc (c-myc) | cell growth (fibroblasts) compared to the control group (fibroblasts) | cell growth rate (keratinocytes) at 100 ng/mL (keratinocytes; 100 ng/mL among 10-10000 ng/mL) | growth rate of the dermal papilla cells (dermal papilla cells [2]) | expression of c-myc with PDRN treatment concentration (c-myc; 72 hours (FIG. 7))
MCCGRGYDQF (Ac-MCCGRGYDQF; cysteine pairing not given here) [Wnt-1] | highest cell growth rate | growth rate of the cells was increased | effect of increasing the activity of β-catenin | effect of increasing the activity of c-myc | – | – | – | –
MCCGRGYNYH (Ac-MCCGRGYNYH; cysteine pairing not given here) [Wnt-2] | highest cell growth rate | – | effect of increasing the activity of β-catenin | effect of increasing the activity of c-myc | no change was observed | highest cell growth rate | – | –
polydeoxyribonucleotide [PDRN] | – | – | effect of increasing the activity of β-catenin | – | – | – | increases as the PDRN treatment concentration increases | increased as the treatment concentration of PDRN increased
